# Assay results from patent US5191073A, “Chromogenic merocyanine enzyme substrates” (priority 1992, dated 1993).
# Columns and labels:
# [1] = Study of Chromogenic Substrate Properties: absorbance maxima, shift, extinction coefficient (Table D); format: physicochemical; settings: for λ max Chromogen / λ max Substrate: colour in words where no value; for ε × 10^3 Chromogen / ε × 10^3 Substrate: values are ε × 10^3; for λ max Shift: shift from substrate to chromogen
# [2] = Study of Chromogenic Substrate Properties: pKa (Table D); format: physicochemical
# [3] = system: β-galactosidase; test: Study of Chromogenic Substrate Properties: enzyme turnover, Km and Kcat (Table D); format: biochemical
# [4] = system: β-galactosidase; test: colour change of reaction mixture or extract on treatment with β-galactosidase; format: biochemical
# Method: 3-Ethyl-2-(4'-β-D-galactopyranosyloxynaphthyl-1'-vinylene)-benzothiazolium iodide (20)--Approximately equal amounts of 4-(β-D-galactopyranosyloxy) -1-naphthaldehyde (5) and 2-methylbenzothiazole ethiodide (8) (H. Richter & R. L. Dresser, supra) were heated at reflux for about 1 minute in ethanol containing a small amount of piperidine. The initially colorless mixture became red-orange during this time. The presence of (20) in the reaction mixture was determined by mixing a portion of the reaction mixture with an equal amount of dimethylformamide, diluting this with 0.1M phosphate buffer pH=7.0, and then treating the resulting solution with β-galactosidase.
# 3-Ethyl-2-(6'-β-D-galactopyranosyloxynaphthyl-2'-vinylene)-benzoselenazolium iodide (24)--A mixture of 6-(β-D-galactopyranosyloxy)-2-naphthaldehyde (6) (34 mg, 0.1 mmole), 2-methylbenzoselenazole ethiodide (12) (H. Richter & R. L. Dresser, supra) (35 mg, 0.1 mmole) and 0.5 mL of anhydrous pyridine was heated in a 70° C. oil bath for 20 hours.
# 1-Ethyl-4-(4'-β-D-galactopyranosyloxynaphthyl-1'-vinylene)-quinoliniumiodide (29)--A mixture of 4-(β-D-galactopyranosyloxy)-naphthaldehyde (5) (34 mg, 0.1 mmole), lepidine ethiodide (28) (H. Richter & R. L. Dresser, supra) (30 mg, 0.1 mmole) and 0.5 mL of anhydrous pyridine was heated in a 70° C. oil bath for 3 hours. Then an additional of 60 mg of lepidine ethiodide (28), was added and the reaction mixture was allowed to react in the 70° C. oil bath for a total of 20 hours.
Structure (SMILES),λ max Chromogen [1],ε × 10^3 Chromogen [1],λ max Shift [1],λ max Substrate [1],ε × 10^3 Substrate [1],pKa [2],Kcat [3],Km [3],colour change on addition of β-galactosidase ([4]; dimethylformamide diluted with 0.1M phosphate buffer pH=7.0),"colour change on addition of β-galactosidase ([4]; 0.3M bicene buffer (pH 7.9), β-galactosidase and a drop of 1N NaOH)",colour change on addition of β-galactosidase ([4]; 50 mM phosphate buffer (pH 7.4)),"time to colour change on addition of β-galactosidase ([4]; 50 mM phosphate buffer (pH 7.4), yellow to blue)"
"CC[N+]1=C(C=Cc2ccc(O[C@@H]3O[C@H](CO)[C@H](O)[C@H](O)[C@H]3O)cc2)C(C)(C)c2ccccc21 [Compound 16, 1-Ethyl-2-(4'-β-D-galactopyranosyloxystyryl)-3,3-dimethylindolenium iodide]",522,45.0,116,406,25.3,7.3,1.43 × 10^3 mole/min per mole active site,18 µM,–,–,–,–
"CC[N+]1=C(C=Cc2ccc(O[C@@H]3O[C@H](CO)[C@H](O)[C@H](O)[C@H]3O)c3ccccc23)C(C)(C)c2ccccc21 [Compound 17, 1-Ethyl-2-(4'-β-D-galactopyranosyloxynaphthyl-1-vinylene)-3,3-dimethylindolinium iodide]",580,82.0,124,456,28.0,6,7.8 × 10^3 mole/min per mole active site,90 µM,–,–,–,–
"CC[N+]1=C(C=Cc2ccc3cc(O[C@@H]4O[C@H](CO)[C@H](O)[C@H](O)[C@H]4O)ccc3c2)C(C)(C)c2ccccc21 [Compound 18, 1-Ethyl-2-(6'-β-D-galactopyranosyloxynaphthyl-2'-vinylene)-3,3-dimethylindolenium iodide]",530,–,100,430,32.2,8.3,1.3 × 10^4 mole/min per mole active site,80 µM,–,–,–,–
"CC[n+]1c(C=Cc2ccc(O[C@@H]3O[C@H](CO)[C@H](O)[C@H](O)[C@H]3O)cc2)sc2ccccc21.[Cl-] [Compound 19, 3-Ethyl-2-(4'-β-D-galactopyranosyloxystyryl) benzothiazolium chloride]",492,43.0,99,393,–,7.6,3.04 × 10^3 mole/min per mole active site,17 µM,–,–,–,–
"CC[n+]1c(C=Cc2ccc(O[C@@H]3O[C@H](CO)[C@H](O)[C@H](O)[C@H]3O)c3ccccc23)sc2ccccc21 [Compound 20, 3-Ethyl-2-(4'-β-D-galactopyranosyloxynaphthyl-1'-vinylene)-benzothiazolium iodide]",violet,–,–,yellow,–,–,–,–,turned from yellow in color to violet,–,–,–
"CC[n+]1c(C=Cc2ccc(O[C@@H]3O[C@H](CO)[C@H](O)[C@H](O)[C@H]3O)c3ccccc23)sc2cc(OC)ccc21 [Compound 21, 3-Ethyl-2-(4'-β-D-galactopyranosyloxynaphthyl-1'-vinylene)-6-methoxybenzothiazolium iodide]",598,80.1,176,422,10.5,6.6,2.8 × 10^3 mole/min per mole active site,430 µM,–,–,–,–
"C[n+]1c(/C=C/c2ccc(O[C@@H]3O[C@H](CO)[C@H](O)[C@H](O)[C@H]3O)c3ccccc23)sc2ccc3ccccc3c21 [Compound 22, 2-(4'-β-D-galactopyranosyloxynaphthyl-1'-vinylene)-3-methyl-β-naphthothiazolium iodide]",610,–,140,470,–,7,–,–,–,–,–,–
"CC[n+]1c(C=Cc2ccc(O[C@@H]3O[C@H](CO)[C@H](O)[C@H](O)[C@H]3O)c3ccccc23)sc2ccc(C)cc21 [Compound 23, 3-Ethyl-2-(4'-β-D-galactopyranosyloxynaphthyl-1'-vinylene)-5-methylbenzothiazolium iodide]",blue,–,–,yellow,–,–,–,–,–,–,–,–
"CC[n+]1c(C=Cc2ccc3cc(O[C@@H]4O[C@H](CO)[C@H](O)[C@H](O)[C@H]4O)ccc3c2)[se]c2ccccc21 [Compound 24, 3-Ethyl-2-(6'-β-D-galactopyranosyloxynaphthyl-2'-vinylene)-benzoselenazolium iodide]",purple,–,–,yellow,–,–,–,–,–,turned to purple immediately,–,–
"Cc1ccc2oc(C=Cc3ccc(O[C@@H]4O[C@H](CO)[C@H](O)[C@H](O)[C@H]4O)c4ccccc34)[n+](CCC(=O)O)c2c1 [Compound 25, 3-(2""-Carboxyethyl)-2-(4'-β-D-galactopyranosyloxynaphthyl-1'-vinylene)-5-methyl benzoxazolium bromide]",550,50.1,130,420,15.8,6.6,9.8 × 10^2 mole/min per mole active site,80 µM,–,–,–,–
"CC[n+]1c(C=Cc2ccc(O[C@@H]3O[C@H](CO)[C@H](O)[C@H](O)[C@H]3O)c3ccccc23)ccc2ccccc21 [Compound 26, 1-Ethyl-2-(4'-β-D-galactopyranosyloxynaphthyl-1'-vinylene)-quinoliniumiodide]",606,70.2,172,434,16.0,6.5,–,–,–,–,–,–
"CC[n+]1ccc(C=Cc2ccc(O[C@@H]3O[C@H](CO)[C@H](O)[C@H](O)[C@H]3O)c3ccccc23)c2ccccc21 [Compound 29, 1-Ethyl-4-(4'-β-D-galactopyranosyloxynaphthyl-1'-vinylene)-quinoliniumiodide]",blue,–,–,yellow,–,–,–,–,–,–,yellow solution turned to blue color,≤ 5 s
